Assay results reported in patent US20150031655A1, “COMBINATION OF LIVER X RECEPTOR MODULATOR AND ESTROGEN RECEPTOR MODULATOR FOR THE TREATMENT OF AGE-RELATED DISEASES” (UNIVERSITY OF NORTH DAKOTA, priority 2011, published 2015).

Columns and labels:
[1] = test system: human neuroblastoma cells; settings: cited from earlier work
α-synuclein = experiment: Western blot of α-synuclein protein levels in SH-SY5Y cells; type: cell-based, human; settings: for basal α-synuclein expression levels: treatment alone vs control
Experimental: (§1) Human neuroblastoma SH-SY5Y cells were grown in DMEM/F12 medium containing 10% fetal bovine serum (FBS) and 1% antibiotic/antimycotic mix. Cells were maintained at 37° C. in a saturated humidity atmosphere containing 95% air and 5% CO2.
(§2) Treated SH-SY5Y cells were washed with PBS and trypsinized to collect the cells and centrifuged at 5000 g. The pellet was washed again with PBS and homogenized in NE-PER tissue protein extraction reagent (Thermo Scientific, Rockford, Ill.) supplemented with protease and phosphatase inhibitors. Protein concentrations from the cytosolic and nuclear homogenates were determined with BCA protein assay.
(§3) Proteins (10 μg) were separated on SDS-PAGE gels, transferred to a polyvinylidene difluoride membrane (BioRad, Hercules, Calif.), and incubated with the following monoclonal antibodies: anti-TH mouse antibody (1:1000; Sigma Aldrich, Saint Louis, Mo.), anti-α-synuclein mouse antibody (1:500; Chemicon, Temecula, Calif.), anti-ERα rabbit antibody (1:500; Abcam, Cambridge, Mass.), anti-ERβ rabbit antibody (1:200; Upstate, Lake Placid, N.Y.), anti-LXRα rabbit antibody (1:500; Abcam, Cambridge, Mass.), anti-LXRβ mouse antibody (1:500; Abcam, Cambridge, Mass.).
(§4) β-actin and Lamin A were used as a gel loading control for cytosolic homogenates and nuclear homogenates respectively. The blots were developed with enhanced chemiluminescence (Immmun-star HRP chemiluminescent kit, Bio-Rad, Hercules, Calif.). Bands were visualized on a polyvinylidene difluoride membrane and analyzed by LabWorks 4.5 software on a UVP Bioimaging System (Upland, Calif.). Quantification of results was performed by densitometry and the results analyzed as total integrated densitometric values (arbitrary units).

[2] = in vivo; cited from earlier work
[3] = test system: experimental intracerebral hemorrhage; settings: 10 μmol.Kg^−1.day^−1 i.p.; cited from earlier work
TH = experiment: Western blot of TH protein levels in SH-SY5Y neuroblastoma cells; type: cell-based, human; settings: 24 h
Experimental: as §1, §2, §3, §4

ARPE-19 cells = experiment: ROS levels in ARPE-19 cells; type: cell-based; settings: ARPE-19, 24 h, co-treatment with 27-OHC, all at 10 μM
ERβ = molecular target: T1, ERβ (Homo sapiens, UniProt Q92731); experiment: Western blot of ERβ levels in the nucleus (nuclear translocation), SH-SY5Y cells; type: cell-based; settings: 24 h
T1 construct: endogenous in cells; host or cells: SH-SY5Y human neuroblastoma cells
T1 sequence (Q92731 whole entry): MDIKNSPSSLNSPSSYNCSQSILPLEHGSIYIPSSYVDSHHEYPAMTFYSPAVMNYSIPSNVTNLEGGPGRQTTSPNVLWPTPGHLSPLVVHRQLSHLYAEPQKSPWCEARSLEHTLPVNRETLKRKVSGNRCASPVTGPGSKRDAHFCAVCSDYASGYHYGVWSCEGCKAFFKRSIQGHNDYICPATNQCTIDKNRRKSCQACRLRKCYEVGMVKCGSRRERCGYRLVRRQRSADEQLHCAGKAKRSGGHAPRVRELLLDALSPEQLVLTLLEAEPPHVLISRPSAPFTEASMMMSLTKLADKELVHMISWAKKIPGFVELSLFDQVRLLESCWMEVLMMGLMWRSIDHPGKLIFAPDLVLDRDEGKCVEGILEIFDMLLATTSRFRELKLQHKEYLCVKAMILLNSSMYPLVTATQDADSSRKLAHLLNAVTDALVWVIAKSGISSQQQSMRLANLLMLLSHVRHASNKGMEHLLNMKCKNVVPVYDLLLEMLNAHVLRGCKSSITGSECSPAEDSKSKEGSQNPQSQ
Experimental: as §1, §2, §3, §4

TH promoter = experiment: Dual-luciferase TH promoter assay; type: cell-based, human
Experimental: Constructs encoding ERE and TH promoter conjugated to the firefly luciferase gene were used in the study. Human neuroblastoma SH-SY5Y cells were plated in 96-well plates at a density of 2×10^4 cells/well. The cells were transfected when 80% confluent with 0.25 μg of either ERE-firefly Luciferase reporter construct, LXRE-firefly Luciferase reporter construct, or TH promotor-firefly Luciferase promoter construct. Respective non-inducible reporter constructs containing constitutively expressing Renilla luciferase were used as negative internal controls. Constitutively expressing GFP constructs were used as positive control to determine transfection efficiency. Cells were incubated for 24 hours with Opti-MEM serum free medium (Invitrogen, Carlsbad, Calif.) containing the reporter constructs dissolved in transfection reagent. After 24 hours the medium was changed and the cells were incubated in normal DMEM/F12 medium containing 10% FBS and cells were treated with the different treatment regimens. The cells were treated in triplicate and harvested 24 hours later and subjected to dual-luciferases assay. The dual-luciferase assay was performed using a “Dual-Luciferase Reporter Assay System” from Promega (Madison, Wis.). The luminescence recorded is expressed as Relative Luminescence Units (RLU) and normalized to per mg protein. Unit value was assigned to control and the magnitude of differences among the samples is expressed relative to the unit value of control cells.

ERα/β = experiment: EMSA, binding of nuclear ER to probe for the ERE half site in the TH promoter; type: cell-based, human
TH mRNA = experiment: Real time RT-PCR of TH mRNA in SH-SY5Y cells; type: cell-based, human; settings: 24 h
Experimental: as §1
Total RNA was isolated and extracted from treated cells using the 5 prime “PerfectPure RNA tissue kit” (5 Prime, Inc., Gaithersburg, Md.). RNA estimation was performed using “Quant-iT RNA Assay Kit” using a Qubit fluorometer according to the manufacturer's protocol (Invitrogen, Carlsbad, Calif.). cDNA was synthesized by reverse transcribing 1 μg of extracted RNA using an “iScript cDNA synthesis kit” (BioRad, Hercules, Calif.). The oligomeric primers (Sigma, St Louis, Mo.) used to amplify the TH mRNA and α-synuclein mRNA are enumerated in Table 1. The cDNA amplification was performed using an iQ SYBR Green Supermix kit following the manufacturer's instructions (BioRad, Hercules, Calif.). The amplification was performed using an iCycler iQ Multicolor Real Time PCR Detection System (BioRad, Hercules, Calif.). The expression of specific TH and α-synuclein transcripts amplified were normalized to the expression of glyceraldehyde-3-phosphate dehydrogenase (GAPDH).

TNF-α = TNF-α levels in ARPE-19 cells; type: cell-based; settings: ARPE-19, 24 h, co-treatment with 27-OHC, all at 10 μM

Structure (SMILES): CC(C)C(O)CC[C@@H](C)[C@H]1CC[C@H]2[C@@H]3CC=C4C[C@@H](O)CC[C@]4(C)[C@H]3CC[C@]12C (some centres unmarked) [24-OHC, 24-hydroxycholesterol]
- 27-OHC-induced effects on TH [1]: reverse
- 27-OHC-induced effects on α-synuclein [1]: reverse

Structure (SMILES): C[C@]12CC[C@@H]3c4ccc(O)cc4C[C@@H](CCCCCCCCC[S+]([O-])CCCC(F)(F)C(F)(F)F)[C@H]3[C@@H]1CC[C@@H]2O (some centres unmarked) [ICI 182780, Fulvestrant]
- basal α-synuclein expression levels (α-synuclein): no effect

Structure (SMILES): CCC1=C(C)c2cc3[n-]c(cc4[n-]c(cc5nc(cc1n2)C(C)=C5CC)c(C)c4CCC(=O)O)c(CCC(=O)O)c3C.[Cl-].[Cl-].[Sn+4] [SnMP, Tin-mesoporphyrin IX]
- blood brain barrier passage [2]: crosses
- protection against experimental intracerebral hemorrhage [3]: protect

Structure (SMILES): C[C@]12CC[C@@H]3c4ccc(O)cc4CC[C@H]3[C@@H]1CC[C@@H]2O [estradiol, 17β-estradiol]
- TH protein levels (TH; concomitant with 10 μM 27-OHC, compared to control or 27-OHC): significant increase
- TH protein levels / TH expression (TH; treatment alone vs control (10 μM 27-OHC, 1 nM estradiol, 10 μM GW3965, 10 μM ECHS)): profound increase
- 27-OHC-induced increase in ROS levels (ARPE-19 cells): not
- 27-OHC-induced attenuation in the nuclear translocation of ERβ (ERβ; concomitant with 10 μM 27-OHC): completely reduced
- nuclear translocation / nuclear levels of ERβ (ERβ; treatment alone vs control): increases
- increase in basal TH promoter activity (TH promoter; SH-SY5Y transfected with TH promoter-luciferase, 24 h): 2.5 fold
- 27-OHC-induced reduction of TH promoter activity (TH promoter; concomitant with 27-OHC): completely reversed
- binding of nuclear ER to the DNA probe corresponding to the ERE-half site on the TH promoter (ERα/β): significantly increases
- inhibitory effects of 27-OHC on binding of ER to the exogenous DNA probe (ERα/β): completely reverses
- effect of ECHS on 27-OHC-induced increase in α-synuclein expression (α-synuclein; estradiol added to 27-OHC+ECHS): does not alter
- α-synuclein expression (α-synuclein; in combination with ECHS): no effect
- basal α-synuclein expression levels (α-synuclein): no effect
- 27-OHC-induced attenuation of TH mRNA (TH mRNA; concomitant with 10 μM 27-OHC): completely reversed
- TH mRNA (TH mRNA; treatment alone vs control): increase
- 27-OHC-induced increase in TNF-α levels (TNF-α): reduced
